Source: patent publication US9682978B2, “2,6,7 substituted purines as HDM2 inhibitors” (Merck Sharp & Dohme Corp., priority 2013, dated 2017)

Molecular target: T1, HDM2 (Homo sapiens, UniProt Q00987)
T1 construct: Thioredoxin (N); made in house; host or cells: E. coli BL21(DE3)Rosetta (pET32a)
Assay: HDM2 FRET assay (inhibition of p53 peptide binding to HDM2)
Settings: truncated HDM2 residues 17 to 125, 0.5 nM HDM2, 3 nM FITC labeled 8-mer peptide, two hour incubation
From the text: Methods: An HDM2 FRET assay was developed to assess the compounds' inhibitory activity towards binding of p53 protein. A truncated version of HDM2 with residues 17 to 125 (containing p53 binding surface, Science (1994) 265, 346-355), with N-terminal His and Thioredoxin tag was generated in pET32a expression vector and expressed in E. coli strain BL21(DE3)Rosetta. Protein was purified using Ni-affinity chromatography, followed by size exclusion chromatography using Superdex 75 26/60 column. To assess inhibition of p53 binding to HDM2, a FITC labeled 8-mer peptide (sequence: Ac-Phe-Arg-Dpr-Ac6c-(6-Br)Trp-Glu-Glu-Leu-NH2; Anal Biochem. 2004 Aug. 1; 331(1):138-46) with strong affinity towards p53 binding pocket of HDM2 was used. The HDM2 assay buffer contained 1× Phosphate Buffered Saline (Invitrogen, Cat#14190), 0.01% BSA (Jackson ImmunoResearch, Cat#001-000-162), 0.01% Tween-20. In the 1× assay buffer recombinant HDM2 protein, peptide and Lumi4-Tb Cryptate-conjugate mouse anti-6×HIS antibody (cisbio, Cat#Tb61HISTLB) were added and transferred to ProxiPlate PLUS (PerkinElmer, Cat#6008269), containing compounds so that final DMSO concentration is 0.1%. Final concentrations of reagents in the assay wells are 0.5 nM HDM2, 0.25 nM anti HIS (Tb label) antibody and 3 nM peptide. After two hour incubation at room temperature in a humidified chamber plates were read on EnVision plate reader with the following settings: excitation: UV, […], two emission filters: 520 nm and 495 nm respectively. Ratio of em520/em495 was used to calculate % inhibition and to obtain IC50 with 4-parameter logistic equation.
IC50 DETERMINATIONS: Dose-response curves were plotted from the inhibition data, from 10 point serial dilutions of inhibitory compounds. Concentration of compound was plotted against em520/Cem495 ratio signal. To generate IC50 values, the dose-response curves were fitted to a standard sigmoidal curve and IC50 values were derived by nonlinear regression analysis. IC50 values in the above table are rounded to the nearest integer.

T1 sequence (Q00987 17-125): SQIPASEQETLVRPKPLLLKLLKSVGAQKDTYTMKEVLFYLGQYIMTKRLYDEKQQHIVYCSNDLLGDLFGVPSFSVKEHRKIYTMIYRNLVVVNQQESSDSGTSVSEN

COc1cc(Cl)cc(-c2nc(-c3noc(=O)[nH]3)nc3ncn(C[C@H]4CC[C@H](C)CC4)c23)c1 [Example 2.6, 3-{6-(3-chloro-5-methoxyphenyl)-7-[(trans-4-methylcyclohexyl)methyl]-7H-purin-2-yl}-1,2,4-oxadiazol-5(4H)-one] gave an IC50 (Table 2) of 312 nM.

In the case of C[C@@H](Nc1nc(-c2noc(=O)[nH]2)nc2ncn(C[C@H]3CC[C@H](C(F)(F)F)CC3)c12)C1CCC1 [Example 3.1, 3-(6-{[(1R)-1-cyclobutylethyl]amino}-7-{[trans-4-(trifluoromethyl)cyclohexyl]methyl}-7H-purin-2-yl)-1,2,4-oxadiazol-5(4H)-one], the IC50 (Table 3) is reported as 116 nM.
